Data: patent US8933099B2, “Monocyclic pyridine derivative” (Eisai R&D Management Co., Ltd., priority 2013, dated 2015)
Where two headings read alike, the source gives them in different places.

Columns and labels:
[1] = tested on: human stomach cancer cell line SNU-16 (FGFR2 gene amplification); assay: SNU-16 growth inhibition assay; assay type: cell-based; conditions: Homo sapiens, SNU-16, 72 h
Method: In this assay, the growth inhibitory activity of a test substance in a human stomach cancer cell line harboring FGFR2 gene amplification is measured.
Then, 10 μL of Cell Counting Kit-8 (Dojindo Laboratories, CK04) was added to each well, and the resultant was incubated for 1 to 2 hours in a 5% CO2 incubator (37° C.) to cause a color reaction. The absorbance value was measured with ENVISION™ (PerkinElmer Co., Ltd.) at 450 nm.

[2] = tested on: normal human umbilical vein endothelial cells (HUVEC); assay: HUVEC growth inhibition assay (VEGF-induced); assay type: cell-based; conditions: Homo sapiens, HUVEC, 72 h
Method: The absorbance value was measured with ENVISION™ (PerkinElmer Co., Ltd.) at 450 nm. The absorbance values of the wells without adding the test substance but with VEGF addition was defined as 100% and the absorbance values of the wells with neither the test substance nor VEGF addition was defined as 0%.

FGFR1 protein = FGFR1 protein (Homo sapiens (Human), UniProt P11362); assay: biochemical
[3] = tested on: human lung cancer cell line NCI-H1581 xenograft; assay: Antitumor effect in NCI-H1581 subcutaneous xenograft model in mice; assay type: in vivo; conditions: oral, once a day for 11 days, tumor volume last day
Method: Human lung cancer cell line NCI-H1581, which had been cultured in RPMI-1640 medium containing 10% FBS, and penicillin and streptomycin, were adjusted to a concentration of 1×10^8 cells/mL with Hanks' Balanced Salt Solution(GIBCO #24020) to prepare a cell suspension, and the suspension was mixed with […] in a ratio of 1:1 to prepare a cell suspension in a concentration of 5×10^7 cells/mL. The cell suspension was inoculated in a volume of 100 μL into a subcutaneous part of a right flank of each of nude mice, 6 to 7 weeks of ages (BALB/cAJcl-nu/nu, female, Clea Japan Inc.). Ten to 11 days after the cell inoculation, the shortest diameter and the longest diameter of a tumor in each mouse were measured by using an electronic digital caliper (Digimatic™ caliper, Mitutoyo Corporation), so as to calculate the volume of the tumor in accordance with the following calculation formula: Tumor volume(mm^3)=Longest diameter(mm)×Shortest diameter(mm)×Shortest diameter(mm)/2
(§1) On the basis of the volumes of tumors obtained on the first day of administration, the nude mice were grouped such that averages of the tumor volumes were substantially equal among the groups. Each test substance was dissolved in DMSO, Tween 80 was added thereto to prepare a solution in a 10-fold concentration and the thus prepared solution was stored at the freezer before use. Immediately before the administration, the stock solution was diluted with a 5% glucose solution to obtain a final administration solution (in which a ratio in % among DMSO, Tween 80 and the 5% glucose solution was 3.5:6.5:90). Each evaluation sample was orally administered to test substance administration group at a volume of 0.4 mL per 20 g of body weight once a day continuously for 11 days, and in a control group, an administration solvent was orally administered under the same conditions. Incidentally, the experiment was conducted on groups each consisting of 5 mice.
(§2) With respect to each of the control group and test substance administration group, a ratio of the weight measured on the final day to the weight measured on the first day (relative body weight: RBW) was calculated. If a ratio of the RBW of the test substance administration group/the RBW of the control group is 0.9 or more, the corresponding test substance administration group was defined as a well-tolerated. In the test substance administration group thus defined as well-tolerated, a ratio of the tumor volume of the test substance-dosing group to the tumor volume of the control group obtained on the last day (TIC) (%) was calculated, and shown in Table 22.

[4] = tested on: human stomach cancer cell line SNU-16 xenograft; assay: Antitumor effect in SNU-16 subcutaneous xenograft model in mice; assay type: in vivo; conditions: oral, once a day for 11 days, tumor volume last day
From the text: Human stomach cancer cell line SNU-16, which had been cultured in an RPMI-1640 medium containing 10% FBS, and penicillin and streptomycin, were adjusted to a concentration of 1×10^8 cells/mL with Hanks' Balanced Salt Solution (GIBCO #24020) to prepare a cell suspension, and the suspension was mixed with […] (BD Biosciences, Cat#354234) in a ratio of 1:1 to prepare a cell suspension in a concentration of 5×10^7 cells/ml. The cell suspension was inoculated in a volume of 100 ut into a subcutaneous part of a right flank of nude mice, 6 to 7 weeks of ages (BALB/cAiel-nu/nu, female, Clea Japan Inc.). Seven days after cell inoculation, the shortest diameter and the longest diameter of a tumor in each mouse were measured by using an electronic digital caliper (Digimatie™ caliper, Mitutoyo Corporation), so as to calculate the volume of the tumor in accordance with the following calculation formula: Tumor volume(mm^3)Longest diameter(mm)×Shortest diameter(mm)×Shortest diameter(mm)/2
as §1
as §2, with “mom,” for “more,”, “21.” for “22.”

[5] = read-out: SNU-16 (IC50 (nM)), cell growth, 3 days, Cell Counting Kit-8
[6] = read-out: HUVEC (IC50 (nM)), growth in the presence of VEGF 10 ng/mL, 3 days

FGFR1 protein, sequence (P11362 22-822): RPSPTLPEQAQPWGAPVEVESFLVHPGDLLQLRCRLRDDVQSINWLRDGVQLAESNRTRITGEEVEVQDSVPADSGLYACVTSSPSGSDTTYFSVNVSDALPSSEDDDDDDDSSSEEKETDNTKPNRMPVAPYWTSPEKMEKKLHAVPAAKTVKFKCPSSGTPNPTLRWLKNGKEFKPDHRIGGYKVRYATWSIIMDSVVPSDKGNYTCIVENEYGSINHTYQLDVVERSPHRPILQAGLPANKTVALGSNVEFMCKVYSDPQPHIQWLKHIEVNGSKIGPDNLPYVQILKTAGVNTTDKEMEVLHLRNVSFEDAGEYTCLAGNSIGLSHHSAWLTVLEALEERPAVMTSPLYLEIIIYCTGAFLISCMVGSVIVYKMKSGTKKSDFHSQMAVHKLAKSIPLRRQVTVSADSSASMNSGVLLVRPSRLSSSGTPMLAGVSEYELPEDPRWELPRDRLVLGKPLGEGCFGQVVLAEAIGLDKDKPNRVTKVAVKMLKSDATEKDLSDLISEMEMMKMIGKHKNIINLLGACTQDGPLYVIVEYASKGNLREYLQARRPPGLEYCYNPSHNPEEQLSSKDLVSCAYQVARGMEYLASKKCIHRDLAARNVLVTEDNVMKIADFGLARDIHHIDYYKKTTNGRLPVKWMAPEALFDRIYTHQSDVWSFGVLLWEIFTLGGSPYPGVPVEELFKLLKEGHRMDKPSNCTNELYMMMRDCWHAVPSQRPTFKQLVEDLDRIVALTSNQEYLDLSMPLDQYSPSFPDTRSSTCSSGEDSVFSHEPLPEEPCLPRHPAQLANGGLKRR

| SMILES | T/C (%) ([3]; 6.25 mg/kg) | T/C (%) ([3]; 12.5 mg/kg) | T/C (%) ([3]; 25 mg/kg) | T/C (%) ([4]; 6.25 mg/kg) | T/C (%) ([4]; 12.5 mg/kg) | T/C (%) ([4]; 25 mg/kg) | T/C (%) ([4]; 50 mg/kg) | other results |
| --- | --- | --- | --- | --- | --- | --- | --- | --- |
| CNC(=O)n1ccc2cc(Oc3ccnc(NC(=O)c4ccc(C5CCNCC5)cc4)c3)c(OC)cc21 [Example 1, 6-Methoxy-N-methyl-5-((2-(4-(piperidin-4-yl)benzamide)pyridin-4-yl)oxy)-1H-indole-1-carboxamide] |  |  |  |  |  |  |  | IC50 ([1]; cell growth, 3 days, Cell Counting Kit-8, read-out: SNU-16 (IC50 (nM))): 7.5 nM; IC50 ([2]; growth in the presence of VEGF 10 ng/mL, 3 days, read-out: HUVEC (IC50 (nM))): 98.7 nM; IC50 (FGFR1 protein): 9.8 nM |
| CCN1CCC(c2ccc(C(=O)Nc3cc(Oc4cc5ccn(C(=O)NC)c5cc4OC)ccn3)cc2)CC1 [Example 2, 5-((2-(4-(1-Ethylpiperidin-4-yl)benzamide)pyridin-4-yl)oxy)-6-methoxy-N-methyl-1H-indole-1-carboxamide] | 36 | 19 | 11 | 51 | 28 | 18 |  |  |
| CNC(=O)n1ccc2cc(Oc3ccnc(NC(=O)c4ccc(C5CCN(CCO)CC5)cc4)c3)c(OC)cc21 [Example 3, 5-((2-(4-(1-(2-Hydroxyethyl)piperidin-4-yl)benzamide)pyridin-4-yl)oxy)-6-methoxy-N-methyl-1H-indole-1-carboxamide] |  |  |  | 45 | 27 | 19 |  |  |
| CNC(=O)n1ccc2cc(Oc3ccnc(NC(=O)c4ccc(C5CCN(C[C@H](C)O)CC5)cc4)c3)c(OC)cc21 [Example 4, (S)-5-((2-(4-(1-(2-Hydroxypropyl)piperidin-4-yl)benzamide)pyridin-4-yl)oxy)-6-methoxy-N-methyl-1H-indole-1-carboxamide] |  |  |  | 40 | 27 | 15 |  |  |
| CNC(=O)n1ccc2cc(Oc3ccnc(NC(=O)c4ccc(CN5CCC(O)CC5)cc4)c3)c(OC)cc21 [Example 9, 5-((2-(4-((4-Hydroxypiperidin-1-yl)methyl)benzamide)pyridin-4-yl)oxy)-6-methoxy-N-methyl-1H-indole-1-carboxamide] |  |  |  |  |  | 55 | 39 | T/C (%) ([4]; 100 mg/kg): 30% |
| CCOc1cc2c(ccn2C(=O)NC)cc1Oc1ccnc(NC(=O)c2ccc(C3CCN(CC)CC3)cc2)c1 [Example 16, 6-Ethoxy-5-((2-(4-(1-ethylpiperidin-4-yl)benzamide)pyridin-4-yl)oxy)-N-methyl-1H-indole-1-carboxamide] | 50 | 25 | 15 | 39 | 21 | 15 |  |  |
| CNC(=O)n1ccc2cc(Oc3ccnc(NC(=O)c4ccc(C5CCN(C)CC5)cc4)c3)c(OCCOC)cc21 [Example 21, 6-(2-Methoxyethoxy)-N-methyl-5-((2-(4-(1-methylpiperidin-4-yl)benzamide)pyridin-4-yl)oxy)-1H-indole-1-carboxamide] | 36 | 18 | 10 | 49 | 26 | 16 | 7 | T/C (%) ([3]; 50 mg/kg): 6% |
| CCOCCOc1cc2c(ccn2C(=O)NC)cc1Oc1ccnc(NC(=O)c2ccc(C3CCN(CCO)CC3)cc2)c1 [Example 25, 6-(2-Ethoxyethoxy)-5-((2-(4-(1-(2-hydroxyethyl)piperidin-4-yl)benzamide)pyridin-4-yl)oxy)-N-methyl-1H-indole-1-carboxamide] |  |  |  | 31 | 23 | 14 | 12 | IC50 [1, 5]: 3.8 nM; IC50 [2, 6]: 191 nM |
| CCOCCOc1cc2c(ccn2C(=O)NC)cc1Oc1ccnc(NC(=O)c2ccc(C3CN(CC)C3)cc2)c1 [Example 26, 6-(2-Ethoxyethoxy)-5-((2-(4-(1-ethylazetidin-3-yl)benzamide)pyridin-4-yl)oxy)-N-methyl-1H-indole-1-carboxamide] |  |  |  | 45 | 36 | 22 | 27 | IC50 [1, 5]: 5.6 nM; IC50 [2, 6]: 258 nM |
